# In patent US6488953B2, “Oral transmucosal delivery” (Controlled Therapeutics (Scotland) Ltd., priority 1998, dated 2002):
# Values joined by “and” are separate entries in the source; they are usually repeats but may differ in a detail not shown here. Equal entries are not always repeated.
# What was measured:
# [1] = test system: A.Xylosoxidans; experiment: MIC microbiological assay; type: cell-based; conditions: single drug
# Description: (§1) A microbiological assay was developed to examine the efficacy of the colistin sulphate and tobramycin when loaded and released from the polymer at the same time. organisms were selected which were sensitive to only one of the antibiotics.
# [2] = test system: S.Aureus; experiment: MIC microbiological assay; type: cell-based; conditions: single drug
# Description: as §1
# [3] = Microbiological testing in-vitro, each drug alone; type: cell-based; conditions: examined alone
# Description: as §1
# [4] = In-vivo release of colistin sulphate and tobramycin from buccal inserts; conditions: four subjects
# Description: The release of the two drugs was examined in four healthy subjects. The insert was placed against the buccal mucosa in the upper gingival tissue. Eating and smoking was not permitted during the study, drinking of tea, coffee or soft drinks was allowed.
# [5] = Oral dissolution model, chemical (HPLC) assay of tobramycin; type: physicochemical; conditions: for Chemical Dissolution (concentration in eluate): cells 1-3
# Procedure: (§2) Six cells were sterilised by autoclaving and then connected to a Duran bottle of sterile water. The flow of water into the cell was controlled by a peristaltic pump (Watson Marlow, Falmouth, UK) to a rate of 0.5 ml/minute. Two different dosage forms (5.8 and 10.5 mg tobramycin) as 9.2 mm discs of thickness 1.7 mm and 130 mg weight were tested by placing directly under the inflow tube and media allowed to flow slowly across them. The dissolution cells were kept at an angle of about 10 degrees to the horizontal to allow flow away from the test units and towards the outflow tube where it was either run to waste or sampled for test. Samples of 2 ml were collected at various timepoints up to 3 hours and divided for chemical (HPLC) and microbiological assay. Tobramycin chemical analysis was carried out using a Dionex HPLC method. The microbiological assay was carried out by double diluting the eluted fractions with broth. These were then spiked with a known number of micro-organisms and incubated. The last tube without growth was then noted. By carrying this out in parallel against a series of prepared standards the inhibitory concentration could be derived.
# [6] = test system: micro-organisms; experiment: Oral dissolution model, microbiological assay of eluted fractions; type: cell-based; conditions: cells 1-3
# Procedure: as §2
# [7] = Apomorphine plasma levels after buccal inserts; type: in vivo, human; conditions: one subject, insert containing 20 mg
# Procedure: 1.1 mm thick inserts containing 5, 10 and 20 mg of apomorphine were tested for drug release in six subjects. The levels of drug observed in plasma was 0.2 to 0.8 ng/ml for five of the subjects and reached 5 ng/ml for one subject after administering an insert containing 20 mg of apomorphine.
# [8] = Apomorphine in-vivo release, 0.6 mm inserts; parameters: species or system human; conditions: individual subjects 1-8
# Procedure: Inserts were prepared of thickness 0.6 mm and the release profile in-vitro compared with those of the 1.1 mm thick inserts.
# A study was carried out in eight subjects. These included two subjects from the previous study and six new subjects.
# [9] = Lysozyme in-vitro release from dried slices (BCA assay); type: physicochemical; conditions: five dried slices in 30 ml demineralised water, after 24 hours
# Procedure: To determine the release profile of lysozyme from dried slices, five slices (0.86 g) were placed in a bottle and 30 ml of demineralised water added. Samples were taken regularly and analysed for protein using the BCA assay. A total of 22.9 mg (88.4%) was released after 24 hours.
compound,measurement,setting,value
Colistin Sulphate,MIC,[1],8 μ μgml^−1
same,MIC,[2],>32 μ μgml^−1
same,microbiological activity,[3],microbiologically active
same,Mean Amount of Drug Released (%),"[4]; insert thickness 0.4 mm, 1 Hour",48.8%
same,Mean Amount of Drug Released (%),"[4]; insert thickness 0.4 mm, 3 Hours",98.6%
same,Mean Amount of Drug Released (%),"[4]; insert thickness 0.6 mm, 1 Hour",32.4%
same,Mean Amount of Drug Released (%),"[4]; insert thickness 0.6 mm, 3 Hours",92.8%
same,Mean Amount of Drug Released (%),"[4]; insert thickness 0.8 mm, 1 Hour",26.7%
same,Mean Amount of Drug Released (%),"[4]; insert thickness 0.8 mm, 3 Hours",83.4%
same,Mean Amount of Drug Released (%),"[4]; insert thickness 1.1 mm, 3 Hours",57.9%
NC[C@H]1O[C@H](O[C@H]2[C@H](O)[C@@H](O[C@H]3O[C@H](CO)[C@@H](O)[C@H](N)[C@H]3O)[C@H](N)C[C@@H]2N)[C@H](N)C[C@@H]1O [Tobramycin],Chemical Dissolution (concentration in eluate),"[5]; 5 mg Dose, 0.25 hrs",35.5 µg/mL and 26.7 µg/mL and 33.4 µg/mL
same,Chemical Dissolution (concentration in eluate),"[5]; 5 mg Dose, 1 hrs",23.7 µg/mL and 17.7 µg/mL and 24.0 µg/mL
same,Chemical Dissolution (concentration in eluate),"[5]; 5 mg Dose, 2 hrs",14.0 µg/mL and 15.8 µg/mL and 18.6 µg/mL
same,Chemical Dissolution (concentration in eluate),"[5]; 5 mg Dose, 3 hrs",14.0 µg/mL and 12.0 µg/mL and 15.4 µg/mL
same,Chemical Dissolution (concentration in eluate),"[5]; 10 mg Dose, 0.25 hrs",105.6 µg/mL and 85.3 µg/mL and 64.4 µg/mL
same,Chemical Dissolution (concentration in eluate),"[5]; 10 mg Dose, 1 hrs",65.4 µg/mL and 44.6 µg/mL and 34.8 µg/mL
same,Chemical Dissolution (concentration in eluate),"[5]; 10 mg Dose, 2 hrs",48.7 µg/mL and 36.9 µg/mL and 27.9 µg/mL
same,Chemical Dissolution (concentration in eluate),"[5]; 10 mg Dose, 3 hrs",36.5 µg/mL and 32.0 µg/mL and 27.0 µg/mL
same,time for which controlled release is maintained,"[5]; oral dissolution model, 0.5 ml/minute",3 h
same,Microbiological Measure of Activity (derived concentration),"[6]; 5 mg Dose, 0.25 hrs",32 mcg/ml and 36 mcg/ml
same,Microbiological Measure of Activity (derived concentration),"[6]; 5 mg Dose, 2 hrs",16 mcg/ml and 18 mcg/ml
same,Microbiological Measure of Activity (derived concentration),"[6]; 5 mg Dose, 3 hrs",16 mcg/ml and 18 mcg/ml
same,Microbiological Measure of Activity (derived concentration),"[6]; 10 mg Dose, 0.25 hrs",64 mcg/ml
same,Microbiological Measure of Activity (derived concentration),"[6]; 10 mg Dose, 1 hrs",64 mcg/ml and 32 mcg/ml
same,Microbiological Measure of Activity (derived concentration),"[6]; 10 mg Dose, 2 hrs",32 mcg/ml and 16 mcg/ml
same,Microbiological Measure of Activity (derived concentration),"[6]; 10 mg Dose, 3 hrs",32 mcg/ml and 16 mcg/ml
same,MIC,[1],>256 μ μgml^−1
same,MIC,[2],4 μ μgml^−1
same,microbiological activity,[3],microbiologically active
CN1CCc2cccc3c2[C@H]1Cc1ccc(O)c(O)c1-3 [Apomorphine],levels of drug observed in plasma,[7],5 ng/mL
same,% RELEASE,[8]; 10 mg,6.4% and 42.8% and 30.4% and 10.9% and 0.48% and 25.1% and 26.0% and 3.4%
same,% RELEASE,[8]; 18 mg,2.64% and 15.2% and 26.3% and 21.5% and 4.1% and 7.5% and 49.2% and 19.4%
same,% RELEASE,[8]; 27 mg (am.),0.0% and 1.1% and 24.8% and 9.9% and 2.7% and 6.2% and 17.7% and 1.3%
same,% RELEASE,[8]; 27 mg (pm.),0.0% and 6.2% and 32.6% and 23.6% and 4.4% and 1.3% and 29.6% and 3.0%
Lysozyme,total released,[9],22.9 mg
same,total released (%),[9],88.4%
